Assay results published in patent US20080132505A1 (Glaxo Group Limited, priority 2004, published 2008).

Each compound was assayed against human cannabinoid CB2 receptor (Homo sapiens, UniProt P34972) (assay: Cannabinoid CB2 receptor agonist activity (yeast reporter assay, FDGlu fluorescence)). Settings: EC50 value at the cloned human cannabinoid CB2 receptor.
human cannabinoid CB2 receptor, sequence (P34972 whole entry): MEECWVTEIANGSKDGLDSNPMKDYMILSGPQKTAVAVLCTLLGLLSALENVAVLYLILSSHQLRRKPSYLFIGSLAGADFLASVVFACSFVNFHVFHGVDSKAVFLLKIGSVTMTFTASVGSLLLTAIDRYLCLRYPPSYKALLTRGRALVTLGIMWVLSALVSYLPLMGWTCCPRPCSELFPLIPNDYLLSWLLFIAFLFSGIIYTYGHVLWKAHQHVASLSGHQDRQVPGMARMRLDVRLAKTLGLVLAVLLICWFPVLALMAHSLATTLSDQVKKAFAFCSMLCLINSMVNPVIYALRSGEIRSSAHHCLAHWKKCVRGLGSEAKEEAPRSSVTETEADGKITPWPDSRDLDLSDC
Format: cell-based
Procedure, shortened: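 Agonist-driven growth was read as fluorescein fluorescence (ex 485, em 535 nm) from FDGlu cleavage after 24 h at 30 °C, using yeast strain MMY23 carrying human CB2 and chimeric Gpa1/Gαi3. Medium had 10 mM 3-aminotriazole, pH 7.0; four-parameter fits gave EC50, with Emax and EMR versus HU210.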
`Cc1cc(CNC(=O)c2cnc(Nc3cccc(Cl)c3)nc2C(F)(F)F)ccn1` [Example 303, 2-(3-Chloro-phenylamino)-4-trifluoromethyl-pyrimidine-5-carboxylic acid (2-methyl-pyridin-4-ylmethyl)-amide] was tested, and the EC50 was 300 to 1000 nM.
Work on `Cc1cc(CNC(=O)c2cnc(Nc3cccc(Br)c3)nc2C(F)(F)F)ccn1` [Example 304, 2-(3-Bromo-phenylamino)-4-trifluoromethyl-pyrimidine-5-carboxylic acid (2-methyl-pyridin-4-ylmethyl)-amide] yielded an EC50 of 300 to 1000 nM.
Compound `CN(Cc1ccccc1)C(=O)c1cnc(Nc2ccccc2Cl)nc1C(F)(F)F` [Example 305, 2-(2-Chloro-phenylamino)-4-trifluoromethyl-pyrimidine-5-carboxylic acid N-benzyl-N-methyl-amide] has an EC50 of 300 to 1000 nM.
With `N#Cc1ccc(CNC(=O)c2cnc(Nc3cccc(F)c3)nc2C(F)(F)F)cc1` [Example 306, 2-(3-Fluoro-phenylamino)-4-trifluoromethyl-pyrimidine-5-carboxylic acid N-(4-cyano-benzyl)amide] the EC50 was 300 to 1000 nM.
`O=C(NCc1ccc(F)c(F)c1)c1cnc(Nc2cccc(Cl)c2)nc1C(F)(F)F` [Example 346, 2-(3-Chloro-phenylamino)-4-trifluoromethyl-pyrimidine-5-carboxylic acid 3,4-difluoro-benzylamide] gave an EC50 of 20 to 300 nM.
`O=C(NCc1ccc(F)cc1)c1cnc(Nc2ccc(F)c(Cl)c2)nc1C(F)(F)F` [Example 347, 2-(3-Chloro-4-fluoro-phenylamino)-4-trifluoromethyl-pyrimidine-5-carboxylic acid 4-fluoro-benzylamide] showed an EC50 of 20 to 300 nM.
Compound `O=C(NCc1ccc(F)cc1)c1cnc(Nc2cccc(Cl)c2F)nc1C(F)(F)F` [Example 348, 2-(3-Chloro-2-fluoro-phenylamino)-4-trifluoromethyl-pyrimidine-5-carboxylic acid 4-fluoro-benzylamide] has an EC50 of 20 to 300 nM.
Compound `O=C(NCc1ccc(F)cc1)c1cnc(Nc2cc(Cl)ccc2F)nc1C(F)(F)F` [Example 349, 2-(5-Chloro-2-fluoro-phenylamino)-4-trifluoromethyl-pyrimidine-5-carboxylic acid 4-fluoro-benzylamide] has an EC50 of 20 to 300 nM.
For `O=C(NCc1ccc(F)cc1)c1cnc(Nc2cc(F)cc(F)c2)nc1C(F)(F)F` [Example 350, 2-(3,5-Difluoro-phenylamino)-4-trifluoromethyl-pyrimidine-5-carboxylic acid 4-fluoro-benzylamide], the EC50 was 20 to 300 nM.
Compound `N#Cc1ccc(Nc2ncc(C(=O)NCc3ccc(F)cc3)c(C(F)(F)F)n2)cc1Cl` [Example 351, 2-(3-Chloro-4-cyano-phenylamino)-4-trifluoromethyl-pyrimidine-5-carboxylic acid 4-fluoro-benzylamide] has an EC50 of 20 to 300 nM.
`COc1cccc(Nc2ncc(C(=O)NCc3ccncc3)c(C(F)(F)F)n2)c1` [Example 352, 2-(3-Methoxy-phenylamino)-4-trifluoromethyl-pyrimidine-5-carboxylic acid (pyridin-4-ylmethyl)-amide] was tested, and the EC50 was 20 to 300 nM.
`O=C(NCc1ccnc(F)c1)c1cnc(Nc2cccc(Br)c2)nc1C(F)(F)F` [Example 353, 2-(3-Bromo-phenylamino)-4-trifluoromethyl-pyrimidine-5-carboxylic acid (2-fluoro-pyridin-4-ylmethyl)-amide] was tested, and the EC50 was 20 to 300 nM.
Work on `O=C(NCc1ccnc(F)c1)c1cnc(Nc2cccc(F)c2)nc1C(F)(F)F` [Example 354, 2-(3-Fluoro-phenylamino)-4-trifluoromethyl-pyrimidine-5-carboxylic acid (2-fluoro-pyridin-4-ylmethyl)-amide] yielded an EC50 of 20 to 300 nM.
Work on `O=C(NCc1ccnc(F)c1)c1cnc(Nc2cc(Cl)ccc2Cl)nc1C(F)(F)F` [Example 355, 2-(2,5-Dichloro-phenylamino)-4-trifluoromethyl-pyrimidine-5-carboxylic acid (2-fluoro-pyridin-4-ylmethyl)-amide] yielded an EC50 of 20 to 300 nM.
Compound `O=C(NCc1ccnc(F)c1)c1cnc(Nc2cc(Cl)cc(Cl)c2)nc1C(F)(F)F` [Example 356, 2-(3,5-Dichloro-phenylamino)-4-trifluoromethyl-pyrimidine-5-carboxylic acid (2-fluoro-pyridin-4-ylmethyl)-amide] has an EC50 of 20 to 300 nM.
For `O=C(NCc1ccnc(F)c1)c1cnc(Nc2ccc(Cl)c(Cl)c2)nc1C(F)(F)F` [Example 357, 2-(3,4-Dichloro-phenylamino)-4-trifluoromethyl-pyrimidine-5-carboxylic acid (2-fluoro-pyridin-4-ylmethyl)-amide], the EC50 was 20 to 300 nM.
`O=C(NCc1ccnc(F)c1)c1cnc(Nc2c(Cl)cccc2Cl)nc1C(F)(F)F` [Example 358, 2-(2,6-Dichloro-phenylamino)-4-trifluoromethyl-pyrimidine-5-carboxylic acid (2-fluoro-pyridin-4-ylmethyl)-amide] gave an EC50 of 20 to 300 nM.
With `O=C(NCc1ccnc(F)c1)c1cnc(Nc2cccc(Cl)c2Cl)nc1C(F)(F)F` [Example 359, 2-(2,3-Dichloro-phenylamino)-4-trifluoromethyl-pyrimidine-5-carboxylic acid (2-fluoro-pyridin-4-ylmethyl)-amide] the EC50 was 20 to 300 nM.
`O=C(NCc1ccnc(F)c1)c1cnc(Nc2ccc(Cl)cc2Cl)nc1C(F)(F)F` [Example 360, 2-(2,4-Dichloro-phenylamino)-4-trifluoromethyl-pyrimidine-5-carboxylic acid (2-fluoro-pyridin-4-ylmethyl)-amide] showed an EC50 of 20 to 300 nM.
`N#Cc1cccc(Nc2ncc(C(=O)NCc3ccccc3)c(C(F)(F)F)n2)c1` [Example 362, 2-(3-Cyano-phenylamino)-4-trifluoromethyl-pyrimidine-5-carboxylic acid benzylamide] gave an EC50 of 20 to 300 nM.
In the case of `O=C(NCc1ccccc1)c1cnc(Nc2c(Cl)cccc2Cl)nc1C(F)(F)F` [Example 363, 2-(2,6-Dichloro-phenylamino)-4-trifluoromethyl-pyrimidine-5-carboxylic acid benzylamide], the EC50 is reported as 20 to 300 nM.
`O=C(NCc1ccc(F)cc1)c1cnc(Nc2cccc(Cl)c2Cl)nc1C(F)(F)F` [Example 364, 2-(2,3-Dichloro-phenylamino)-4-trifluoromethyl-pyrimidine-5-carboxylic acid 4-fluoro-benzylamide] showed an EC50 of 20 to 300 nM.
`O=C(NCc1ccc(F)cc1)c1cnc(Nc2ccc(Cl)cc2Cl)nc1C(F)(F)F` [Example 365, 2-(2,4-Dichloro-phenylamino)-4-trifluoromethyl-pyrimidine-5-carboxylic acid 4-fluoro-benzylamide] showed an EC50 of 20 to 300 nM.
Work on `O=C(NCc1ccc(F)cc1)c1cnc(Nc2cc(Cl)ccc2Cl)nc1C(F)(F)F` [Example 366, 2-(2,5-Dichloro-phenylamino)-4-trifluoromethyl-pyrimidine-5-carboxylic acid 4-fluoro-benzylamide] yielded an EC50 of 20 to 300 nM.
Compound `O=C(NCc1ccc(F)cc1)c1cnc(Nc2ccc(Cl)c(Cl)c2)nc1C(F)(F)F` [Example 367, 2-(3,4-Dichloro-phenylamino)-4-trifluoromethyl-pyrimidine-5-carboxylic acid 4-fluoro-benzylamide] has an EC50 of 20 to 300 nM.
Work on `O=C(NCc1ccc(F)cc1F)c1cnc(Nc2cccc(Cl)c2)nc1C(F)(F)F` [Example 368, 2-(3-Chloro-phenylamino)-4-trifluoromethyl-pyrimidine-5-carboxylic acid 2,4-difluoro-benzylamide] yielded an EC50 of 20 to 300 nM.
Work on `O=C(NCc1ccc(F)cc1)c1cnc(Nc2ccc(C(F)(F)F)c(F)c2)nc1C(F)(F)F` [Example 369, 2-(3-Fluoro-4-trifluoromethyl-phenylamino)-4-trifluoromethyl-pyrimidine-5-carboxylic acid 4-fluoro-benzylamide] yielded an EC50 of 20 to 300 nM.
In the case of `CC(C)c1cc(Nc2ccc(Br)c(C(F)(F)F)c2)ncc1C(=O)NCC1CCOCC1` [Example 752, 6-(4-Bromo-3-trifluoromethyl-phenylamino)-4-isopropyl-N-(tetrahydropyran-4-ylmethyl)-nicotinamide], the EC50 is reported as 300 to 1000 nM.

Same assay, conditions: read-out: efficacy value (Emax relative to HU210) at the cloned human cannabinoid CB2 receptor
`Cc1cc(CNC(=O)c2cnc(Nc3cccc(Br)c3)nc2C(F)(F)F)ccn1` [Example 304, 2-(3-Bromo-phenylamino)-4-trifluoromethyl-pyrimidine-5-carboxylic acid (2-methyl-pyridin-4-ylmethyl)-amide] was tested, and the Emax was over 50%.
With `N#Cc1ccc(CNC(=O)c2cnc(Nc3cccc(F)c3)nc2C(F)(F)F)cc1` [Example 306, 2-(3-Fluoro-phenylamino)-4-trifluoromethyl-pyrimidine-5-carboxylic acid N-(4-cyano-benzyl)amide] the Emax was over 50%.
`N#Cc1ccc(Nc2ncc(C(=O)NCc3ccc(F)cc3)c(C(F)(F)F)n2)cc1Cl` [Example 351, 2-(3-Chloro-4-cyano-phenylamino)-4-trifluoromethyl-pyrimidine-5-carboxylic acid 4-fluoro-benzylamide] was tested, and the Emax was over 50%.
With `N#Cc1cccc(Nc2ncc(C(=O)NCc3ccccc3)c(C(F)(F)F)n2)c1` [Example 362, 2-(3-Cyano-phenylamino)-4-trifluoromethyl-pyrimidine-5-carboxylic acid benzylamide] the Emax was over 50%.
`CC(C)c1cc(Nc2cccc(C(F)(F)F)c2)ncc1C(=O)NCc1ccc(F)cc1` [Example 393, N-(4-Fluoro-benzyl)-4-isopropyl-6-(3-trifluoromethyl-phenylamino)-nicotinamide] was tested, and the Emax was over 50%.
`Cc1cccc(Nc2cc(C(C)C)c(C(=O)NCc3ccc(F)cc3)cn2)c1C#N` [Example 395, 6-(2-Cyano-3-methyl-phenylamino)-N-(4-fluoro-benzyl)-4-isopropyl-nicotinamide] gave an Emax of over 50%.
With `O=C(NCc1ccncc1)c1ccc(Nc2cccc(Cl)c2)nc1C(F)(F)F` [Example 457, 6-(3-Chloro-phenylamino)-N-(pyridin-4-ylmethyl)-2-trifluoromethyl-nicotinamide] the Emax was over 50%.
`O=C(NCC1CCOCC1)c1ccc(Nc2cccc(Cl)c2)nc1C(F)(F)F` [Example 662, 6-(3-Chloro-phenylamino)-N-(tetrahydro-pyran-4-ylmethyl)-2-trifluoromethyl-nicotinamide] was tested, and the Emax was over 50%.
Compound `CC(C)c1cc(Nc2cc(Cl)ccc2C#N)ncc1C(=O)NCC1CCOCC1` [Example 679, 6-(5-Chloro-2-cyano-phenylamino)-4-isopropyl-N-(tetrahydro-pyran-4-ylmethyl)-nicotinamide] has an Emax of under 30%.
`CC(C)c1cc(Nc2cccc(Cl)c2)ncc1C(=O)NCC1CCS(=O)(=O)C1` (centres unmarked) [Example 681, 6-(3-Chloro-phenylamino)-N-(1,1-dioxo-tetrahydro-1l^6-thiophen-3-ylmethyl)-4-isopropyl-nicotinamide] showed an Emax of over 50%.
Work on `CC(C)c1cc(Nc2cccc(OC(F)(F)F)c2)ncc1C(=O)NCC1CCC1` [Example 682, N-Cyclobutylmethyl-4 isopropyl-6-(3-trifluoromethoxy-phenylamino)-nicotinamide] yielded an Emax of over 50%.
For `CC(C)c1cc(Nc2ccc(C#N)cc2F)ncc1C(=O)NCC1CCCC1` [Example 751, 6-(4-Cyano-2-fluoro-phenylamino)-N-cyclopentylmethyl-4-isopropyl-nicotinamide], the Emax was over 50%.
`CC(C)c1cc(Nc2ccc(Br)c(C(F)(F)F)c2)ncc1C(=O)NCC1CCOCC1` [Example 752, 6-(4-Bromo-3-trifluoromethyl-phenylamino)-4-isopropyl-N-(tetrahydropyran-4-ylmethyl)-nicotinamide] was tested, and the Emax was over 50%.
